Results published in patent publication US20250313546A1, “NUCLEIC ACID BINDERS” (UNIVERSITY OF STRATHCLYDE, priority 2022, published 2025).
≈ marks a conversion by molar mass, not a printed value.

Assays:
[1] = tested on: C. krusei; experiment: Expanded set of yeasts, MIC broth microdilution (CLSI); type: cell-based; conditions: Pichia kudriavzevii, ATCC6258; isolate ATCC 6258; MIC at 50% inhibition
[2] = tested on: Scedosporium spp.; experiment: Expanded set of filamentous fungi, MIC broth microdilution (CLSI); type: cell-based
[3] = tested on: Fusarium oxysporum (F7098); conditions: read-out: MIC99 Fusarium oxysporum
Experimental: (§1) The Minimum Inhibitory Concentration (MIC, at 99% inhibition) of the compounds was determined using the broth microdilution method as recommended by EUCAST (EUCAST Definitive Document E.DEF 9.3.2, Method for the determination of broth dilution minimum inhibitory concentrations of antifungal agents for conidia forming moulds and EUCAST Definitive Document E.DEF 7.3.2 Method for the determination of broth dilution minimum inhibitory concentrations of antifungal agents for yeasts).

[4] = tested on: Staphylococcus aureus (ATCC 43300); experiment: Antibacterial MIC, broth microdilution (CLSI); type: cell-based; conditions: for MIC80: Staphylococcus aureus, ATCC43300, read-out: MIC80 S. aureus; for S. aureus Selectivity Indices, Group: SI, IC50 (μM)/MIC80 (μM), HEK293 cytotoxicity, Alkyl Amidines and NH Pyrroles
[5] = tested on: Lomentospora prolificans; experiment: Expanded set of filamentous fungi, MIC broth microdilution (CLSI); type: cell-based; conditions: isolate S2, MIC at 50% inhibition
[6] = tested on: Rhizopus arrhizus (NEQAS12.35321); conditions: read-out: MIC99 Rhizopus arrhizus
Experimental: as §1

[7] = tested on: A. flavus (CBS 128.202); conditions: Aspergillus flavus, CBS128, read-out: MIC99 A. flavus
Experimental: as §1

[8] = tested on: Aspergillus flavus; experiment: Expanded set of filamentous fungi, MIC broth microdilution (CLSI); type: cell-based; conditions: MIC at 50% inhibition; for MIC50: Aspergillus flavus; for MIC50 Aspergillus flavus: isolate Aflav3
[9] = tested on: SARS-CoV-2 (hCoV-19/Australia/VIC01/2020); experiment: SARS-CoV-2 microplaque inhibition assay in Vero-E6 cells; type: cell-based
[10] = In vivo pharmacokinetics mouse model (distribution and tolerability); set-up: species or system male CD-1 mice
Experimental: The procedure used for in vivo pharmacokinetics experiments is described below.
1 mL of 2 mg/mL stock solution was prepared by adding 500 μL of DMSO to 2 mg of compound and vortexed well until the compound had fully dissolved. 500 μL of Saline for Injection (SFI, warmed to 37° C.) was added dropwise, under vortexing.
Working Solutions Immediately prior to dosing, the 2 mg/mL stock solution was diluted 1:5 to produce 0.4 mg/mL dosing solution. 2 mL of 0.4 mg/mL solution was prepared by adding 400 μL of […] stock solution to 1600 μL diluent (10% DMSO, 90% SFI).
The dosing solution was administered to 7 male CD-1 mice, at 5 mL/kg via intravenous (IV) injection (e.g. 30 g mouse with 150 μL). 3 mice were grouped for the blood sampling study and 4 mice were grouped for the tissue sampling study.
At each time point (0.5, 2, 4, 8 hours), 20 μL blood samples were collected from mice by tail prick into 20 μL EDTA blood collection capillary tubes on wet ice. 20 μL blood samples were added directly to the appropriate well of a 96 deep well plate and mixed with 20 μL of distilled water and the samples stored at −80° C. prior to bioanalysis.
At each time point (0.25 and 1 hour), the lung, both kidneys and the liver (left lateral lobe) were removed from culled mice (two per time point) and individually placed in pre-weighed bead beater tubes, which were then weighed to determine tissue weight. 4× weight/volume sterile water was added to the tissue. Tissues were homogenized in a Precellys bead beater then snap frozen at […] until bioanalysis.
Initial stock of Ia10 was made to 1 mg/mL in DMSO. Calibration and quality controls were made by spiking 1 mg/mL DMSO stock into desired matrix and serial dilution in matrix to desired concentration. Calibration range=1 ng/mL-5000 ng/mL. All samples were crashed out in 5× volume of Acetonitrile. Samples were centrifuged and supernatant diluted 1:3 in water to be analysed on LCMS.
Compound Ia10 has been evaluated in an in vivo pharmacokinetics mouse model in order to investigate compound distribution and tolerability.

[11] = isolate S1, MIC at 50% inhibition
[12] = isolate S3, MIC at 50% inhibition
[13] = ATCC204304, isolate ATCC 204304

| SMILES | MIC50 [1] [µg/mL] | MIC50 [2, 11] [µg/mL] | MIC50 [2, 12] [µg/mL] | MIC99 [3] [µg/mL] | MIC80 [4] [µM] | MIC50 [5] [µg/mL] | MIC99 [6] [µg/mL] | MIC99 [7] [µg/mL] | MIC50 [8, 13] [µg/mL] | MIC50 ([8]; isolate Aflav2) [µg/mL] | MIC50 Aspergillus flavus [8] | S. aureus Selectivity Indices, Group [4] | SARS-CoV-2 Selectivity Indices, Group ([9]; SI, IC50 (μM)/IC50 (μM), HEK293 cytotoxicity, Alkyl Amidines and NH Pyrroles) | IC50 ([9]; Severe acute respiratory syndrome coronavirus 2, Vero C1008, plaque inhibition, Vero-E6 cells, read-out: IC50 SARS-CoV-2) [µM] | Blood conc @ 1 Hr ([10]; 2 mg/kg IV dose in mice, blood, 1 Hr) [nM] | Lung conc @ 1 Hr ([10]; 2 mg/kg IV dose in mice, lung, 1 Hr) [µM] | Accumulation in lung tissue ([10]; 2 mg/kg IV in mice) | Tolerability ([10]; 2 mg/kg IV in mice (higher doses were not investigated)) | Kp at 1 h ([10]; male, CD-1, mouse, lung vs whole blood, 2 mg/kg IV dose in mice, lung vs blood at 1 Hr, read-out: Lung accumulation factor) |
| --- | --- | --- | --- | --- | --- | --- | --- | --- | --- | --- | --- | --- | --- | --- | --- | --- | --- | --- | --- |
| C/N=C(\CCNC(=O)c1cc(NC(=O)c2cc(NC(=O)c3ccc(/C=C/c4ccc(N(C)C)cc4)nc3)cn2C)cn1C)NC [Ia8, 6-((E)-4-(dimethylamino)styryl)-N-(1-methyl-5-((1-methyl-5-(((E)-3-(methylamino)-3-(methylimino)propyl)carbamoyl)-1H-pyrrol-3-yl)carbamoyl)-1H-pyrrol-3-yl)nicotinamide] | 1 to 8 (≈ 1.64 to 13.1 µM) | 1 to 8 (≈ 1.64 to 13.1 µM) | 1 to 8 (≈ 1.64 to 13.1 µM) | < 5 | 5 to 25 (≈ 3.05 to 15.2 µg/mL) | 1 to 8 (≈ 1.64 to 13.1 µM) | 5 to 25 (≈ 8.2 to 41 µM) | < 5 | 1 to 8 (≈ 1.64 to 13.1 µM) | 1 to 8 (≈ 1.64 to 13.1 µM) | ** (** means 1 μg/mL < MIC50 <= 8 μg/mL) |  |  |  |  |  |  |  |  |
| [H]/N=C(\CCNC(=O)c1cc(NC(=O)c2cc(NC(=O)c3ccc(C=Cc4ccc(N(C)C)cc4)nc3)cn2C)cn1C)NC [Ia9, (E)-6-(4-(dimethylamino)styryl)-N-(5-((5-((3-imino-3-(methylamino)propyl)carbamoyl)-1-methyl-1H-pyrrol-3-yl)carbamoyl)-1-methyl-1H-pyrrol-3-yl)nicotinamide] | 1 to 8 (≈ 1.68 to 13.4 µM) | 1 to 8 (≈ 1.68 to 13.4 µM) | ≤ 1 | < 5 | 5 to 25 (≈ 2.98 to 14.9 µg/mL) | ≤ 1 | 5 to 25 (≈ 8.39 to 42 µM) | 5 to 25 (≈ 8.39 to 42 µM) | 1 to 8 (≈ 1.68 to 13.4 µM) | 1 to 8 (≈ 1.68 to 13.4 µM) | ** (** means 1 μg/mL < MIC50 <= 8 μg/mL) | C (Group C: 5 < SI <= 10) | B (Group B: 4.1 < SI <= 10) | 2 to 8 |  |  |  |  |  |
| C/N=C(/CCNC(=O)c1cc(NC(=O)c2cc(NC(=O)c3ccc(/C=C/c4cnc5ccccc5c4)cc3)cn2C)cn1C)NC [Ia10, 1-methyl-4-(1-methyl-4-(4-((E)-2-(quinolin-3-yl)vinyl)benzamido)-1H-pyrrole-2-carboxamido)-N—((Z)-3-(methylamino)-3-(methylimino)propyl)-1H-pyrrole-2-carboxamide] | ≤ 1 | ≤ 1 | ≤ 1 | 5 to 25 (≈ 8.11 to 40.5 µM) | < 5 | ≤ 1 | 5 to 25 (≈ 8.11 to 40.5 µM) | < 5 | ≤ 1 | ≤ 1 | *** (*** means MIC50 <= 1 μg/mL) | B (Group B: 3 < SI <= 5) |  |  | 204 | 28.968 | remarkable accumulation in lung tissue | well tolerated | ~142 |
